From patent publication US20080132577A1, “Use of agomelatine in obtaining medicaments intended for the treatment of smith-magenis syndrome” (LES LABORATOIRES SERVIER, priority 2006, published 2008)

Legend:
patients = assay: Clinical trials of agomelatine: acceptability, tolerability and drug interactions; type: in vivo, human
Source text: In fact, agomelatine makes it possible to act simultaneously on the behaviour disorders and on the resynchronisation of disturbed circadian rhythms.

[1] = system: children with Smith-Magenis syndrome; assay: Exploratory phase II clinical study in children with Smith-Magenis syndrome (actigraphy, Achenbach questionnaire); type: in vivo, human; settings: agomelatine 1-5 mg/kg co-administered with acebutolol 10 mg/kg
Description: An exploratory phase II study was carried out in children with Smith-Magenis syndrome. Agomelatine 1-5 mg/kg was co-administered with acebutolol 10 mg/kg, a […]. The main analysis criteria were actigraphy parameters recorded over five periods of 30 consecutive days, after 30 days of treatment, and 3, 5 and 15 months of treatment, and also the Achenbach questionnaire, allowing the behaviour disorders to be assessed.
These major effects were carried over to the families, who, following the highly positive consequences of the treatment on family life, requested continuation of the treatment on a compassionate basis.

[2] = system: Smith-Magenis syndrome patients; settings: evening exogenous melatonin with morning beta-adrenergic antagonists; cited from earlier work
[3] = actigraphy, up to 15 months of treatment

| Structure (SMILES) | drug interactions (patients; human, in vivo) | clinical and biological tolerability (patients; more than 4000 patients exposed in clinical trials) | behaviour (behaviour disorders, Achenbach questionnaire) [1] | clinical improvement found by a specialist [1] | sleep quality recorded [1] | duration of daytime naps [1, 3] | duration of night waking [1, 3] | frequency of night waking [1, 3] | activity in respect of the behaviour disorders [2] |
| --- | --- | --- | --- | --- | --- | --- | --- | --- | --- |
| COc1ccc2cccc(CCNC(C)=O)c2c1 [agomelatine, N-[2-(7-methoxy-1-naphthyl)ethyl]acetamide] | no drug interactions | excellent clinical and biological tolerability | Real progress in relation to behaviour | Major clinical improvement | a calm, deep sleep, less-broken nights and less-early waking in the morning | reduction in the duration of daytime naps | reduction | reduction | – |
| COc1ccc2[nH]cc(CCNC(C)=O)c2c1 [melatonin] | – | – | – | – | – | – | – | – | no activity |
